The values below come from ChEMBL document CHEMBL5113537, “Discovery of β-Arrestin-Biased 25CN-NBOH-Derived 5-HT2A Receptor Agonists” (J Med Chem, 2022).

The species entered for assay [1] is Homo sapiens. Kind of assay: Selectivity ratio of EC50 for agonist activity at human 5HT2A S159A mutant transfected in HEK293T cells assessed as beta arrestin-2 recruitment measured for 2 hrs by luminescent assay to EC50 for agonist activity at human wild type 5HT2A receptor transfected in HEK293T cells assessed as beta arrestin-2 recruitment measured for 2 hrs by luminescent assay. It counts as cell-based.

The species named for assay [2] is Homo sapiens. The assay is described as follows: Selectivity ratio of EC50 for agonist activity at human 5HT2A S159A mutant transfected in HEK293T cells assessed as mini Galphaq recruitment measured for 2 hrs by luminescent assay to EC50 for agonist activity at human wild type 5HT2A transfected in HEK293T cells assessed as mini Galphaq recruitment measured for 2 hrs by luminescent assay. It counts as cell-based.

Assay [3] concerns the target 5-hydroxytryptamine receptor 2A (Homo sapiens) (UniProt P28223). The assay is described as follows: Agonist activity at wild type human 5HT2A transfected in HEK293T cells assessed as beta arrestin-2 recruitment measured for 2 hrs by luminescent assay. It counts as functional, cell-based. The following applies: filed as agonist.

Structures are written as SMILES. Calls of active or inactive are those of the source. No cut-off for these calls is given here.

Chain of 5-hydroxytryptamine receptor 2A (Homo sapiens) (P28223 whole entry): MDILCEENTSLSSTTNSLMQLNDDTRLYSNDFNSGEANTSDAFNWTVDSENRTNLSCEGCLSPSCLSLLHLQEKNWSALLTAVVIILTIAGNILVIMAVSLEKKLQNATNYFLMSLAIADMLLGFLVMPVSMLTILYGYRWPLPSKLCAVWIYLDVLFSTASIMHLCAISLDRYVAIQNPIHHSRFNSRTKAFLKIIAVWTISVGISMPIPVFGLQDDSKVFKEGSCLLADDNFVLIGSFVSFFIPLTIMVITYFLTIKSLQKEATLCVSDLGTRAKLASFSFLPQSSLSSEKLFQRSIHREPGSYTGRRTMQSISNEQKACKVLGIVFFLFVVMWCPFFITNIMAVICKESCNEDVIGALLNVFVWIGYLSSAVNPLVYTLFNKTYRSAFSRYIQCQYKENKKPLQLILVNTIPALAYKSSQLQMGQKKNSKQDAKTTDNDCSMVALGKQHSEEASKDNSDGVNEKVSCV

For `COc1cc(CCNCc2ccccc2F)c(OC)cc1C#N`, the Ratio EC50 in the assay listed under Homo sapiens [1] is 3. Turning to `COc1cc(CCNCc2cccc(O)c2)c(OC)cc1Br`, the Ratio EC50 in the assay filed under Homo sapiens [2] is 12; in the assay filed under Homo sapiens [1], 15. In the case of `COc1cc(CCNC2COc3ccccc32)c(OC)cc1C#N` (racemic), the outcome in assay [3] was Active.
